Among the data in BindingDB's records for doi:10.1016/j.bmcl.2004.09.023 (Dupont Pharmaceuticals, 2004) are IC50 values, retold here.

For experiment [1], the target named is Cyclin-dependent kinase 2/G1/S-specific cyclin-E1 (Homo sapiens, UniProt P24941). Description: Kinase Inhibition Assay.
Method: (§1) The enzyme was assayed with substrate GST-Rb in the presence of 50 mM ATP/[gamma-32P] ATP, and capturing the 32-P labeled reaction products on GSH-Sepharose beads. […] Use of 32P-labeled ATP allows this transfer to be monitored by scintillation counting.
The target of experiment [2] is Cyclin-dependent kinase 4/G1/S-specific cyclin-D1 (Homo sapiens, UniProt P11802). The experiment can be described thus: Kinase Inhibition Assay.
Sequence of Cyclin-dependent kinase 4/G1/S-specific cyclin-D1 (P11802 whole entry): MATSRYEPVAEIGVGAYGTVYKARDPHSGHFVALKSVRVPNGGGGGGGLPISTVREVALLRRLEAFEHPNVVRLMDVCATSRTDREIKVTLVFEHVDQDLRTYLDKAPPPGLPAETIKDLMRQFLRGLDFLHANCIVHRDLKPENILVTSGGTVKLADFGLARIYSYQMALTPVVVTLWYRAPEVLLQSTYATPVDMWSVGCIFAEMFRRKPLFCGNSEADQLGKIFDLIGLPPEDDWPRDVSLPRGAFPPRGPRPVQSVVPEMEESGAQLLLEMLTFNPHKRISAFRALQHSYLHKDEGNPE
Sequence of Cyclin-dependent kinase 4/G1/S-specific cyclin-D1 (P24385 whole entry, further chain): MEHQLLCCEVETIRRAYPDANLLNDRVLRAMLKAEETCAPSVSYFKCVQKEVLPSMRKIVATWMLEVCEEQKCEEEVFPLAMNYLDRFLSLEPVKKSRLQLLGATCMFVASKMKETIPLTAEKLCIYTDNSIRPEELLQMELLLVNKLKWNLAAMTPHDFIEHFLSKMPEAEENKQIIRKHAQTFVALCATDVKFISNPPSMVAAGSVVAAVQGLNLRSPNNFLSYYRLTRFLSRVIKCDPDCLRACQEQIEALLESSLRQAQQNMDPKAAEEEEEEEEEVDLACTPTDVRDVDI
Method: as §1

For the compound `COc1ccc(-c2[nH]nc3c2C(=O)c2c(NC(=O)NNC(=O)c4ccc(O)cc4O)cccc2-3)cc1` [2,4-dihydroxy-N-({[3-(4-methoxyphenyl)-4-oxo-2H,4H-indeno[1,2-c]pyrazol-5-yl]carbamoyl}amino)benzamide], the IC50 turned out to be 16 nM in experiment [1] and 12 nM in experiment [2]. With `COc1ccc(-c2[nH]nc3c2C(=O)c2c(NC(=O)NNC(=O)c4cccc5ccccc45)cccc2-3)cc1` [N-({[3-(4-methoxyphenyl)-4-oxo-2H,4H-indeno[1,2-c]pyrazol-5-yl]carbamoyl}amino)naphthalene-1-carboxamide], the IC50 in experiment [1] (pH 7.6, 22 °C) stood at 53 nM. As to `COc1ccc(-c2[nH]nc3c2C(=O)c2c(NC(=O)NNC(=O)c4ccccc4)cccc2-3)cc1` [N-({[3-(4-methoxyphenyl)-4-oxo-2H,4H-indeno[1,2-c]pyrazol-5-yl]carbamoyl}amino)benzamide], the midpoint of inhibition in experiment [1], the IC50, lay at 12 nM. With `COc1ccc(-c2[nH]nc3c2C(=O)c2c(NC(=O)NNC(=O)C(N)=O)cccc2-3)cc1` [N-({[3-(4-methoxyphenyl)-4-oxo-2H,4H-indeno[1,2-c]pyrazol-5-yl]carbamoyl}amino)ethanediamide], in experiment [1], the IC50 was 97 nM. As to `COc1ccc(-c2[nH]nc3c2C(=O)c2c(NC(=O)NNC(C)=O)cccc2-3)cc1` [N-({[3-(4-methoxyphenyl)-4-oxo-2H,4H-indeno[1,2-c]pyrazol-5-yl]carbamoyl}amino)acetamide], the IC50 in experiment [1] amounted to 37 nM; in experiment [2], 57 nM. Take `COc1ccc(-c2[nH]nc3c2C(=O)c2c(NC(=O)NNC(=O)c4ccccc4OC)cccc2-3)cc1` [2-methoxy-N-({[3-(4-methoxyphenyl)-4-oxo-2H,4H-indeno[1,2-c]pyrazol-5-yl]carbamoyl}amino)benzamide]: half-maximal inhibition in experiment [1] (pH 7.6, 22 °C) (IC50) was put at 14 nM. Turning to `COc1ccc(-c2[nH]nc3c2C(=O)c2c(NC(=O)NNC(=O)Cc4ccccc4)cccc2-3)cc1` [N-({[3-(4-methoxyphenyl)-4-oxo-2H,4H-indeno[1,2-c]pyrazol-5-yl]carbamoyl}amino)-2-phenylacetamide], the values for the IC50 in experiment [1] and in experiment [2] were 33 nM and 27 nM, respectively. As for `COc1ccc(-c2[nH]nc3c2C(=O)c2c(NC(=O)NNC(=O)c4cccc([N+](=O)[O-])c4)cccc2-3)cc1` [N-({[3-(4-methoxyphenyl)-4-oxo-2H,4H-indeno[1,2-c]pyrazol-5-yl]carbamoyl}amino)-3-nitrobenzamide], in experiment [1] (pH 7.6, 22 °C), the IC50 worked out at 24 nM. As to `COc1ccc(-c2[nH]nc3c2C(=O)c2c(NC(=O)NNC(=O)c4cc(N)cc(N)c4)cccc2-3)cc1` [3,5-diamino-N-({[3-(4-methoxyphenyl)-4-oxo-2H,4H-indeno[1,2-c]pyrazol-5-yl]carbamoyl}amino)benzamide], the IC50 amounted to 39 nM in experiment [1] (pH 7.6, 22 °C) and 16 nM in experiment [2]. Take `COc1ccc(-c2[nH]nc3c2C(=O)c2c(NC(=O)NNC(=O)c4ccc(O)c(N)c4)cccc2-3)cc1` [3-amino-4-hydroxy-N-({[3-(4-methoxyphenyl)-4-oxo-2H,4H-indeno[1,2-c]pyrazol-5-yl]carbamoyl}amino)benzamide]: the concentration for half-maximal inhibition (IC50) in experiment [1] (pH 7.6, 22 °C) is 24 nM. In experiment [1] (pH 7.6, 22 °C), `COc1ccc(-c2[nH]nc3c2C(=O)c2c(NC(=O)NNC(=O)C(C)C)cccc2-3)cc1` [N-({[3-(4-methoxyphenyl)-4-oxo-2H,4H-indeno[1,2-c]pyrazol-5-yl]carbamoyl}amino)-2-methylpropanamide] registered an IC50 of 19 nM. In experiment [1], `COc1ccc(-c2[nH]nc3c2C(=O)c2c(NC(=O)NNC(=O)c4cccc(N)c4)cccc2-3)cc1` [3-amino-N-({[3-(4-methoxyphenyl)-4-oxo-2H,4H-indeno[1,2-c]pyrazol-5-yl]carbamoyl}amino)benzamide] showed an IC50 of 13 nM.

The compound `COc1ccc(-c2[nH]nc3c2C(=O)c2c(NC(=O)NNC(=O)c4ccncc4)cccc2-3)cc1` [N-({[3-(4-methoxyphenyl)-4-oxo-2H,4H-indeno[1,2-c]pyrazol-5-yl]carbamoyl}amino)pyridine-4-carboxamide] yielded an IC50 in experiment [1] of 12 nM. For `COc1ccc(-c2[nH]nc3c2C(=O)c2c(NC(=O)NNC(=O)c4ccc(C)cc4)cccc2-3)cc1` [N-({[3-(4-methoxyphenyl)-4-oxo-2H,4H-indeno[1,2-c]pyrazol-5-yl]carbamoyl}amino)-4-methylbenzamide], in experiment [1] (pH 7.6, 22 °C), the half-maximal inhibitory concentration (IC50) was 24 nM. Compound `COc1ccc(-c2[nH]nc3c2C(=O)c2c(NC(=O)NNC(=O)CCc4ccc(O)cc4)cccc2-3)cc1` [3-(4-hydroxyphenyl)-N-({[3-(4-methoxyphenyl)-4-oxo-2H,4H-indeno[1,2-c]pyrazol-5-yl]carbamoyl}amino)propanamide] came in with an IC50 in experiment [1] (pH 7.6, 22 °C) of 13 nM. The same measure, in the same setting: for `COC(=O)NNC(=O)Nc1cccc2c1C(=O)c1c-2n[nH]c1-c1ccc(OC)cc1` [methoxy-N-({[3-(4-methoxyphenyl)-4-oxo-2H,4H-indeno[1,2-c]pyrazol-5-yl]carbamoyl}amino)formamide] the value was 16 nM. In experiment [1] (pH 7.6, 22 °C), `COc1ccc(-c2[nH]nc3c2C(=O)c2c(NC(=O)NNC(=O)c4cccc(C)c4)cccc2-3)cc1` [N-({[3-(4-methoxyphenyl)-4-oxo-2H,4H-indeno[1,2-c]pyrazol-5-yl]carbamoyl}amino)-3-methylbenzamide] registered an IC50 of 13 nM.

In the case of `COc1ccc(C(=O)NNC(=O)Nc2cccc3c2C(=O)c2c(-c4ccc(OC)cc4)n[nH]c2-3)cc1` [4-methoxy-N-({[3-(4-methoxyphenyl)-4-oxo-2H,4H-indeno[1,2-c]pyrazol-5-yl]carbamoyl}amino)benzamide], the concentration for half-maximal inhibition (IC50) in experiment [1] (pH 7.6, 22 °C) is 15 nM; in experiment [2], 11 nM.

In experiment [1], `COc1ccc(-c2[nH]nc3c2C(=O)c2c(NC(=O)NNC(=O)c4cccnc4)cccc2-3)cc1` [N-({[3-(4-methoxyphenyl)-4-oxo-2H,4H-indeno[1,2-c]pyrazol-5-yl]carbamoyl}amino)pyridine-3-carboxamide] gave an IC50 of 16 nM. On to `COc1ccc(-c2[nH]nc3c2C(=O)c2c(NC(=O)NNC(=O)c4ccc5ccccc5c4)cccc2-3)cc1` [N-({[3-(4-methoxyphenyl)-4-oxo-2H,4H-indeno[1,2-c]pyrazol-5-yl]carbamoyl}amino)naphthalene-2-carboxamide], for which the 50% inhibitory concentration (IC50) in experiment [1] was found to be 35 nM; in experiment [2], 13 nM. In the case of `COc1ccc(-c2[nH]nc3c2C(=O)c2c(NC(=O)NNC(=O)Nc4ccccc4)cccc2-3)cc1` [3-[3-(4-methoxyphenyl)-4-oxo-2H,4H-indeno[1,2-c]pyrazol-5-yl]-1-[(phenylcarbamoyl)amino]urea], it took 19 nM to reach half-maximal inhibition in experiment [1] (pH 7.6, 22 °C) (IC50). On to `COc1ccc(-c2[nH]nc3c2C(=O)c2c(NC(=O)NNC(=O)c4cc(Cl)ccc4Cl)cccc2-3)cc1` [2,5-dichloro-N-({[3-(4-methoxyphenyl)-4-oxo-2H,4H-indeno[1,2-c]pyrazol-5-yl]carbamoyl}amino)benzamide], for which the IC50 worked out at 36 nM in experiment [1] (pH 7.6, 22 °C) and 28 nM in experiment [2].

With `COc1ccc(-c2[nH]nc3c2C(=O)c2c(NC(=O)NNC(=O)c4cc(OC)cc(OC)c4)cccc2-3)cc1` [3,5-dimethoxy-N-({[3-(4-methoxyphenyl)-4-oxo-2H,4H-indeno[1,2-c]pyrazol-5-yl]carbamoyl}amino)benzamide], the IC50 in experiment [2] was 24 nM.

Broadly, the IC50 is the point on the concentration scale where inhibition reaches its midpoint.
